This note sets out measurements from patent US20110300147A9, “Inhibiting tumor cell invasion, metastasis and angiogenesis” (The Scripps Research institute, priority 2005, published 2011).

In series [1] the test system is mouse aorta vessel sprouts. As to the kind of experiment: mouse aortic sprouting assay. The format is cell-based. The protocol: The effects of AEPI-1 on angiogenesis were further evaluated in mouse aortic sprouting assays. First, AEPI-1 was added to the beginning of the experiment to determine its effect on initiation of vessel sprouts (FIG. 5A). […] In the second assay, AEPI-1 was added at the third day after aortic sprouts were already formed (FIG. 5B), to ascertain whether asparaginyl endopeptidase activity was required for continued extension of vessel growth.

The nature of series [2]: cytotoxicity of AEPI-1 in wild type 293 cells. The format is cell-based, human. The settings on record: human, wild type 293 cells. The method, then:
(§1) To further evaluate the role of asparaginyl endopeptidases in angiogenesis, four asparaginyl endopeptidases inhibitors (AEPI) were tested using recombinant legumain in an amidolytic activity assay with fluorescent substrate. FIG. 4A graphically illustrates the effects that AEPI-1 to AEPI-4 (also referred to as legumain inhibitors LI-1 to LI-4) have on asparaginyl endopeptidase activity. […] No apparent cytotoxicity was observed until almost 100 μM AEPI-1 was used in these assays (FIG. 4B).

Series [3] deals with wild type 293 cells. As to the kind of experiment: cytotoxicity of AEPI-1 in wild type 293 cells. It counts as cell-based, human. The settings on record: wild type and legumain-expressing 293 cells. The method, then:
as §1

In series [4] the test system is 4T1 mammary carcinoma. The series can be described thus: primary 4T1 tumor and spontaneous lung metastasis model. The settings on record: AEPI-1 50 μg i.p. every two days for two weeks. The format is in vivo, BALB/c mice. The protocol: Primary 4T1 tumors are generated by subcutaneous injection of 5×10^5 4T1 cells in the right flank of six-week-old BALB/c mice. Two different groups of four animals were treated between days 9 and 27 after tumor induction. The treatments were 100-μl […] injections of PBS alone (control group) or LEG-3 100 μg/100 μl in PBS by intraperitoneal injection every two days for two weeks. Tumor volumes of treated animals were measured every two-day starting on day 9 by microcaliper measurements (volume=width×length×width/2). As soon as the tumor volume reached 1400 mm^3 in the control groups (on day 30th), euthanasia was performed and lungs were removed and fixed in the Bouin's solution. Lung metastases were counted by anatomy microscope. Statistical significance between treatment groups was determined by two-tailed Student's t tests using Microsoft EXCEL software.
Tumor induction was performed by subcutaneous injection of 5×10^5 4T1 cells in the right flank mammary fat pat of six-week-old BALB/c mice. […] Tumor volumes of treated animals were measured everyday starting on day 6 by micro-caliper measurements (volume=width×length×width/2). […] Lung metastases were counted by anatomy microscope. The statistical significance between treatment and control groups was determined by two-tailed Student's t tests using Microsoft EXCEL software.

Series [5] is described as follows: cytotoxicity of AEPI-1 in 293 cells expressing legumain. The format is cell-based. The settings on record: human, 293 cells recombinantly expressing legumain; 293 cells that recombinantly expressed legumain. The method, then: as §1
In series [6] the test system is MDA-MB-231 cells. The series can be described thus: MDA-MB-231 human mammary carcinoma model. It counts as in vivo, Balb C nu/nu mice. The settings on record: two weeks after tumor cell implantation. The method, then: The effect of AEPI-1 on tumor growth and invasion was then evaluated in a human mammary carcinoma model established in Balb C nu/nu mice. The MDA-MB-231 cells grew aggressively in vivo and formed a tumor that was similar to a human infiltrating ductal carcinoma with apparent glandular differentiation. The tumor locally invaded surrounding tissues and skeletal muscles.

Series [7] concerns HUVEC. As to the kind of experiment: endothelial cell invasion assay under hypoxia. The format is cell-based, human. The conditions noted are these: hypoxic conditions. The method, then: Cell invasion and mobility assays. Cell migration and invasion assays were performed as described with modifications (Albini et al., 1987). Stock solutions (15 mg/ml) of Matrigel basement membrane matrix (Becton Dickinson, Bedford, Mass.) were stored at −80° C. in 100 μl aliquots. After thawing on ice, the stock was diluted 1:50 with cold serum-free culture media and immediately applied to each membrane insert (8 μm pore) that formed the upper chambers of the multi-well invasion assay plate. The Matrigel was incubated overnight in a sterile laminar tissue culture hood. The membranes were hydrated for 2 hours with 250 μl of serum-free medium and excess medium was removed by aspiration. Medium containing 10% FBS was added to the bottom of each well. A suspension of 10^5 cells in 150 μl of serum-free medium was added to the upper chamber and incubated for 12 hours at 37° C., 5% CO2. At the indicated times, the membrane inserts were removed from the plate and the non-invading cells were removed from the upper surface. Membrane associated cells were stained with 0.09% crystal violet for 30 minutes and washed twice with PBS. The invading cells were counted microscopically. […]
The effect of AEPI-1 on endothelial cell function was assessed in vitro in a matrigel endothelial cell tube formation assay. […]

The target of series [8] is T1, legumain (Mus musculus, UniProt O89017).
T1 construct: from tissue
T1 sequence (O89017 18-325): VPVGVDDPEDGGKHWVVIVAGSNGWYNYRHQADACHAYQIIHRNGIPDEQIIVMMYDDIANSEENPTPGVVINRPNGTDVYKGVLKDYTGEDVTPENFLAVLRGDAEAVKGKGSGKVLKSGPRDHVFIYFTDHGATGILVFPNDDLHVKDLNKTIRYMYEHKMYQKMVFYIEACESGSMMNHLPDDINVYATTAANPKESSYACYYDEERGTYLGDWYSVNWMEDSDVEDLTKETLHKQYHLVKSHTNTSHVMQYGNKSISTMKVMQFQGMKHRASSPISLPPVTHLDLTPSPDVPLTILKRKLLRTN
The series can be described thus: legumain activity in tissues after systemic administration of AEPI-1. The format is in vivo, mice.

The subject of series [9] is HUVEC. As to the kind of experiment: matrigel endothelial cell tube formation assay. The format is cell-based, human. The protocol: The effect of AEPI-1 on endothelial cell function was assessed in vitro in a matrigel endothelial cell tube formation assay. […] In contrast, addition of recombinant legumain dramatically promoted and accelerated tube formation (FIG. 4D). HUVEC tube formation was observed as early as 5 hours after assay initiation when legumain was added. Under normal conditions 24 hours were required for the vascular tubes to form.

As usually defined, the CC50 is the concentration that lowers cell viability or growth by half.

For the compound `CCOC(=O)C1OC1C(=O)N(CC(N)=O)NC(=O)[C@H](C)NC(=O)[C@H](C)NC(=O)OCc1ccccc1` (stereo partly drawn) [AEPI-1, Cbz-Ala-Ala-AzaAsn-(S,S)-EPCOOEt], the “FGF-2 induced vessel sprouts (initiation)” value in [1] (AEPI-1 added at the beginning of the experiment) is given as “inhibited FGF-2 induced vessel sprouts in a dose dependent manner”. Further, the “extension of established vascular outgrowth” value in series [1] (AEPI-1 added at the third day after aortic sprouts were formed) is given as “significantly reduced”. The CC50 in [2] is 320 µM. Further, in series [3], the “concentration until which no apparent cytotoxicity was observed” value was about 100 µM. Moreover, in [4], the “growth of 4T1 mammary carcinoma” value is on record as “inhibits the growth” and the spontaneous lung metastasis result was “inhibited spontaneous lung metastasis”. Besides, in [5], the CC50 turned out to be 430 µM. For the same compound, in series [6], the “tumor differentiation into a more invasive form” value is “blocked” and the tumor growth entry is given as “completely suppressed tumor growth”. Further, the “hypoxia induced endothelial cell invasion” value in [7] is “inhibited”. In addition, the cell permeability entry in series [8] (inferred from tumor vs kidney legumain activity) is listed as “substantially impermeable to cells”. Moreover, in series [8] (systemic administration), the “legumain activity in 4T1 tumors” value is listed as “inhibited legumain activity in 4T1 tumors” and the “legumain activity in kidney” value was “does not affect”. For the same compound, in series [9] (HUVEC, matrigel), the “concentration at which inhibition of tube formation was apparent” value came to 100 nM and the “concentration at which tube formation was completely inhibited” value was 600 nM. Moreover, in series [9] (hypoxic conditions), the “hypoxia induced tube formation” value was “inhibited”. Besides, in series [9] (matrigel, normal conditions), the HUVEC tube formation result is reported as “suppressed HUVEC tube formation in a dose dependent manner”.
